Test [1] concerns the target Sulfonylurea receptor 2, Kir6.2 (Homo sapiens, UniProt O60706+Q14654). Put plainly: (§1) In vitro ATP-sensitive potassium channel (KATP) activity in cells expressing human KATP channels Kir6.2 and sulfonylurea receptor 2B. It counts as functional.
For test [2], the target named is Sulfonylurea receptors; K-ATP channels (Sus scrofa). Put plainly: In vitro functional potassium channel opening activity in tissue strips obtained from Landrace pig bladders(LPD).
Test [3] addresses Sulfonylurea receptor 2, Kir6.2 (Homo sapiens) (UniProt Q14654+O60706). The test is described as §1. It is filed as functional. Particulars: filed as antagonist.

Chain of Sulfonylurea receptor 2, Kir6.2 (Q14654 whole entry): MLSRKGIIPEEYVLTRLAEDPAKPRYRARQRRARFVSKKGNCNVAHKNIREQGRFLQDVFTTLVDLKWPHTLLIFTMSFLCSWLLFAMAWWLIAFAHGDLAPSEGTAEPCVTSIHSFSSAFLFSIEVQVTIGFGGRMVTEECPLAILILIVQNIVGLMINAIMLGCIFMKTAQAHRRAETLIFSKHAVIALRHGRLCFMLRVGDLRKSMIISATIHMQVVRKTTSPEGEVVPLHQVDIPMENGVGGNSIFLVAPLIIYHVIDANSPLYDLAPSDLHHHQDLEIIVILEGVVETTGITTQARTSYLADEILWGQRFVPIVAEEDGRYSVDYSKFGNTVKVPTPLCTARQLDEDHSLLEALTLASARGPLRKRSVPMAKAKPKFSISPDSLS
Chain of Sulfonylurea receptor 2, Kir6.2 (O60706 whole entry): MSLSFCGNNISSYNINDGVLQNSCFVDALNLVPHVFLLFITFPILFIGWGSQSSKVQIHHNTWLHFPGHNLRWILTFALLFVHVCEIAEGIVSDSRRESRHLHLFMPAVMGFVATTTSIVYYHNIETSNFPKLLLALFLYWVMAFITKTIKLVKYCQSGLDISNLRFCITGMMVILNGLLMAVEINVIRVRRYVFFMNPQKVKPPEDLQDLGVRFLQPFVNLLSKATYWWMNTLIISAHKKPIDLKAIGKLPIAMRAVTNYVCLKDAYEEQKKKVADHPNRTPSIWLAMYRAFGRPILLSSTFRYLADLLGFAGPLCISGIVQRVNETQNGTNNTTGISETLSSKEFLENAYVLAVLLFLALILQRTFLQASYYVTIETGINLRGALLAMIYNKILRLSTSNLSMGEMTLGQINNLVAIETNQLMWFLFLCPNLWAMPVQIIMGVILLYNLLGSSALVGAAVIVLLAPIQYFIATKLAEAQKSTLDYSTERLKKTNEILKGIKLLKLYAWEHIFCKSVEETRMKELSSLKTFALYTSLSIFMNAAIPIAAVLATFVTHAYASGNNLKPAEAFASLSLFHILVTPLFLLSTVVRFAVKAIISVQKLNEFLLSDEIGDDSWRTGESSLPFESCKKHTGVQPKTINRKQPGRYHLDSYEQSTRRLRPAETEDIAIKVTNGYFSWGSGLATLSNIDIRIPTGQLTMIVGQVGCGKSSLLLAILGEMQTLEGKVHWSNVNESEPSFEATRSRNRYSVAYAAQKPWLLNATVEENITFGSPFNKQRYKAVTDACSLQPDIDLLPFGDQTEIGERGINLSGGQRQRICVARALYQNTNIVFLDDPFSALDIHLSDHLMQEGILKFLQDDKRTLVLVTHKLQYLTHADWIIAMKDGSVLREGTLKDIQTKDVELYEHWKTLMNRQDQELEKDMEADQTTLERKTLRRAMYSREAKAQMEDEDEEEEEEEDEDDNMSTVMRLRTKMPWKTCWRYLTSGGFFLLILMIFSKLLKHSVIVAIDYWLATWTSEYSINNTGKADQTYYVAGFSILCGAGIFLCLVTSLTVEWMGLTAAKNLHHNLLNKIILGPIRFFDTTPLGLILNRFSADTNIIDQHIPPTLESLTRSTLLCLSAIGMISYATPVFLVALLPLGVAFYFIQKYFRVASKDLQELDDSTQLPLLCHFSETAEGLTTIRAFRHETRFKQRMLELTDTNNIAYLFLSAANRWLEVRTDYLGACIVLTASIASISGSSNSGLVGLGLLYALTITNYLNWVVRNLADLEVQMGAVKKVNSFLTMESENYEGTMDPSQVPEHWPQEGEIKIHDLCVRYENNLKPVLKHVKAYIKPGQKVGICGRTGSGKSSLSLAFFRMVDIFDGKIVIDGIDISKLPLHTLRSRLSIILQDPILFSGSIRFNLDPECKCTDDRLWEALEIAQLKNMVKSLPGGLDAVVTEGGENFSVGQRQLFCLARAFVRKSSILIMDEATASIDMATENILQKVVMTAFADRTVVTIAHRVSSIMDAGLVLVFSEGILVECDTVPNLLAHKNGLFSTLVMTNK

Take `CC(Cl)(Cl)[C@H](NC(=O)c1ccc(Cl)cc1)N/C(=N/c1cccnc1)NC#N`: the figures for the EC50 in test [1] and in test [2] were 10 µM and 20 µM, respectively.
On to `CC(C)(C)C(NC(=O)c1ccc(Cl)cc1)N/C(=N/c1cccnc1)NS(N)(=O)=O` (stereo not drawn), for which, in test [1], the EC50 is over 100 µM.
Turning to `CC(C)(C)C(NC(=O)c1ccc(Cl)cc1)N/C(=N/c1cccnc1)NC#N` (stereo not drawn), the concentration giving a half-maximal response (EC50) in test [1] is 6.31 µM; in test [2], 20 µM.
`Cc1ccc(C(=O)NC(/N=C(\NC#N)Nc2cccnc2)C(C)(Cl)Cl)cc1` (stereo not drawn) showed an EC50 in test [1] of 2.51 µM.
For the molecule `CC(Cl)(Cl)C(NC(=O)c1cc(F)cc(F)c1)N/C(=N/c1cccnc1)NC#N` (stereo not drawn), the EC50 in test [1] is 3.98 µM; in test [2], 5.01 µM.
As to `CC(Cl)(Cl)C(NC(=O)c1cccc(F)c1)N/C(=N/c1cccnc1)NC#N` (stereo not drawn), the EC50 in test [1] was 3.98 µM.
As to `CC(C)(C)C(NC(=O)c1ccc(Cl)cc1)NC(Nc1cccnc1)=C(C#N)C#N` (stereo not drawn), in test [3], the “Log EC50” value is “Antagonist”.
Consider `CCCCC(C)(C)C(NC(=O)c1ccc(Cl)cc1)N/C(=N/c1cccnc1)NC#N` (stereo not drawn), for which the EC50 in test [1] is over 100 µM.
On to `C=CCC(C)(C)C(NC(=O)c1ccc(Cl)cc1)NC(=NC#N)Nc1cccnc1` (stereo not drawn), for which it took 20 µM to reach a half-maximal effect in test [1] (EC50).
`CC(Cl)(Cl)[C@@H](NC(=O)c1ccc(Cl)cc1)N/C(=N/C#N)Nc1cccnc1`: the EC50 in test [1] is 0.316 µM; in test [2], 5.01 µM.
In test [1], `CC(Cl)(Cl)C(NC(=O)c1ccc(Br)cc1)N/C(=N/c1cccnc1)NC#N` (stereo not drawn) gave a concentration giving a half-maximal response (EC50) of 10 µM.
Turning to `CC(Cl)(Cl)C(NC(=O)c1ccc(Cl)cc1)NC(=NC#N)Nc1cccnc1` (stereo not drawn), the results for the EC50 in test [1] and in test [2] were 2 µM and 2.51 µM, respectively.
`CCC(CC)(CCC#N)C(NC(=O)c1ccc(Cl)cc1)NC(=NC#N)Nc1cccnc1` (stereo not drawn): the EC50 in test [1] and in test [2] was 5.01 µM throughout.
For the molecule `CC(C)(C)C(NC(=O)c1ccc(Cl)cc1)N/C(S)=N/c1cccnc1` (stereo not drawn), the EC50 was 2.51 µM in test [1] and 7.94 µM in test [2].
The matching figures for `CC(C)(C)C(NC(=O)c1ccc(Cl)cc1)N/C(=N/c1cccnc1)N[N+](=O)[O-]` (stereo not drawn): 31.6 µM and 7.94 µM.
As for `C=CC(C)(C)CC(NC(=O)c1ccc(Cl)cc1)N/C(=N/c1cccnc1)NC#N` (stereo not drawn), the EC50 in test [1] is 10 µM.
In the case of `Cc1cccc(C(=O)NC(/N=C(\NC#N)Nc2cccnc2)C(C)(Cl)Cl)c1` (stereo not drawn), the EC50 in test [1] is 5.01 µM.
`O=C(NC(NC(=S)Nc1cccnc1)C(Cl)(Cl)Cl)c1ccc(Cl)cc1` (stereo not drawn): the EC50 in test [1] was 0.794 µM; in test [2], 2 µM.
`CN(C)S(=O)(=O)N/C(=N\C(NC(=O)c1ccc(Cl)cc1)C(C)(C)C)Nc1cccnc1` (stereo not drawn) had an EC50 in test [1] of over 100 µM.
On to `CC(Cl)(Cl)C(NC(=O)c1cccc(Cl)c1)N/C(=N/c1cccnc1)NC#N` (stereo not drawn), for which the EC50 was 3.16 µM in test [1] and 1.58 µM in test [2].
In the same order, the values of `N#CN/C(=N\C(NC(=O)c1ccc(Cl)cc1)C(Cl)(Cl)Cl)Nc1cccnc1` (stereo not drawn) are 1 µM and 2 µM.
As to `CC(C)(C)C(NC(=O)c1ccc(Cl)cc1)N/C(=C/[N+](=O)[O-])Nc1cccnc1` (stereo not drawn), the EC50 in test [1] was over 100 µM.

(Values after ChEMBL document CHEMBL1148468, “Design and synthesis of novel cyanoguanidine ATP-sensitive potassium channel openers for the treatment of overactive bladder” (Bioorg Med Chem Lett, 2004).)
